Source: paper PMC6263154 (Bioorganic & medicinal chemistry letters, 2018)

Experiments:
[1] = tested on: M. abscessus infection; conditions: mouse model of M. abscessus infection, intrapulmonary delivery; cited from earlier work
[2] = parameters: species or system mice; conditions: mouse, in vivo
[3] = tested on: mmpL3; conditions: in both Mabs and Mtb; cited from earlier work
[4] = tested on: CYP2B6, CYP2C8, CYP2C9, CYP2C19, CYP2D6, CYP3A4; assay: CYP inhibition, in vitro panel of six common isoforms; assay type: biochemical; conditions: human
[5] = Cytotoxicity towards HepG2 cell line; assay type: cell-based; conditions: human, HepG2 cells
[6] = target: T1, CYP2B6 (Homo sapiens, UniProt P20813); assay: CYP inhibition, CYP2B6; assay type: biochemical
T1 sequence (P20813 1-491): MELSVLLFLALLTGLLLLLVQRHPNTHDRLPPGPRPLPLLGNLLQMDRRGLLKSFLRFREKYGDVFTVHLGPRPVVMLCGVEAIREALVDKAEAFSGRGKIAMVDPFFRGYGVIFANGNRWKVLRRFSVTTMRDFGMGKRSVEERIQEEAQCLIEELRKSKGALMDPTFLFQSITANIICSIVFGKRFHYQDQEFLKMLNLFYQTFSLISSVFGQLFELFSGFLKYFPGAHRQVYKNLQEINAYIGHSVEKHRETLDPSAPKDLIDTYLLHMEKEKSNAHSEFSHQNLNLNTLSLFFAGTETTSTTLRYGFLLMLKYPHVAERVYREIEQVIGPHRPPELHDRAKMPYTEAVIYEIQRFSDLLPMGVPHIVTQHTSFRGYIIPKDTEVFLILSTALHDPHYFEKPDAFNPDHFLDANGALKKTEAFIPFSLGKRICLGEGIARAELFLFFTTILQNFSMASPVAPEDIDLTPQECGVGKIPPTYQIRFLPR

[7] = target: CYP3A4 (Homo sapiens, UniProt P08684); assay: CYP inhibition, CYP3A4; assay type: biochemical
[8] = tested on: Mycobacterium avium complex; assay: MIC against Mycobacterium avium complex; assay type: cell-based; conditions: MAC; listed as CRS400393
[9] = tested on: Mabs; conditions: for 3 days; cited from earlier work

Sequence of CYP3A4 (P08684 whole entry): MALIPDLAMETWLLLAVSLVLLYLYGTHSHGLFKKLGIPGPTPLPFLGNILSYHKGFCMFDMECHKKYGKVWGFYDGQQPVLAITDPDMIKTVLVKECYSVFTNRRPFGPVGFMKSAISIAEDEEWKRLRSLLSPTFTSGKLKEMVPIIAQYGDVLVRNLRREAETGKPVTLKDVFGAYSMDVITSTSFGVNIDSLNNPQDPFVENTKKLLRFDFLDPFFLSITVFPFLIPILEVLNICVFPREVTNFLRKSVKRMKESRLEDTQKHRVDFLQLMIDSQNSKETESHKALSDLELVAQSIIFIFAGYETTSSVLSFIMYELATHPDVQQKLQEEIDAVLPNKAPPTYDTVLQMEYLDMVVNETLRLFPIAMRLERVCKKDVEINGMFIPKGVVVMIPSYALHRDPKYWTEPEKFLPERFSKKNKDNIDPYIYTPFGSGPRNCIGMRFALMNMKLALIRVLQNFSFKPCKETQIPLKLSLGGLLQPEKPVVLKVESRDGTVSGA

Compound: CC12CC3CC(C)(C1)CC(C(=O)Nc1nc4ccc(OC(F)(F)F)cc4s1)(C3)C2 [CRS400226]
- in vivo efficacy [1]: demonstrated in vivo efficacy

Compound: CC1CC(C(=O)Nc2nc3c(F)cc(F)cc3s2)CC(C)(C)C1 (stereo not drawn) [Compound 18]
- single dose toxicity observation [2]: All mice appeared normal with no abnormal behavior observed
- effect on transfer of mycolic acids to cell envelope acceptors [3]: affect the transfer of mycolic acids

Compound: CC1CC(C(=O)Nc2nc3ccc(OC(F)(F)F)cc3s2)CC(C)(C)C1 (stereo not drawn) [Compound 32]
- IC50 [4]: > 20 µM
- IC50 [5]: > 100 µM
- effect on transfer of mycolic acids to cell envelope acceptors [3]: affect the transfer of mycolic acids

Compound: CC12CCCC(C(=O)Nc3nc4cc(Cl)cc(Cl)c4s3)(CCC1)C2 [Compound 43]
- inhibition at 10 µM [6]: ≤ 50%
- inhibition at 10 µM [7]: ≤ 50%
- MIC against Mycobacterium avium complex [8]: 1 to 2 µg/mL
- time kill: effect against Mabs [9]: bacteriostatic

Compound: CC12CCCC(C(=O)Nc3nc4ccc(OC(F)(F)F)cc4s3)(CCC1)C2 [Compound 52]
- inhibition at 10 µM [6]: ≤ 50%
- inhibition at 10 µM [7]: ≤ 50%
